Measured values reported in the NIST ThermoML archive (doi:10.1021/acs.jced.8b00132).
Where “and” joins values, the source holds several entries; their conditions need not be identical. Equal values may be shown once.

Conditions: Liquid, transient hot wire

O=C(C(F)(F)C(F)(F)F)C(F)(C(F)(F)F)C(F)(F)F [dodecafluoro-2-methylpentan-3-one]
Conditions | thermal conductivity
182.75 K, 277 kPa | 0.07883 W/m/K
182.75 K, 315 kPa | 0.07859 W/m/K
182.89 K, 13189 kPa | 0.08133 W/m/K
182.89 K, 19887 kPa | 0.08218 W/m/K
182.89 K, 19910 kPa | 0.08244 W/m/K
182.89 K, 21592 kPa | 0.08301 W/m/K
182.89 K, 21600 kPa | 0.08295 W/m/K
182.9 K, 13187 kPa | 0.08114 W/m/K
183.09 K, 352 kPa | 0.0792 W/m/K
183.09 K, 355 kPa | 0.07913 W/m/K
183.16 K, 13354 kPa | 0.08121 W/m/K
183.16 K, 13358 kPa | 0.08178 W/m/K
183.18 K, 6554 kPa | 0.07996 W/m/K
183.18 K, 6555 kPa | 0.08035 W/m/K
183.19 K, 88 kPa | 0.07924 W/m/K
183.19 K, 92 kPa | 0.07941 W/m/K
183.21 K, 21596 kPa | 0.08274 W/m/K
183.21 K, 21614 kPa | 0.08282 W/m/K
183.22 K, 13197 kPa | 0.08104 W/m/K
183.22 K, 13203 kPa | 0.08122 W/m/K
183.22 K, 19909 kPa | 0.08195 W/m/K
183.22 K, 19917 kPa | 0.08246 W/m/K
183.46 K, 394 kPa | 0.07899 W/m/K
183.47 K, 372 kPa | 0.07904 W/m/K
183.49 K, 13357 kPa | 0.0812 W/m/K
183.49 K, 13358 kPa | 0.08133 W/m/K
183.51 K, 6548 kPa | 0.08023 W/m/K
183.51 K, 6554 kPa | 0.08027 W/m/K
183.52 K, 86 kPa | 0.07888 W/m/K
183.53 K, 84 kPa | 0.07899 W/m/K
183.57 K, 19904 kPa | 0.08223 W/m/K
183.57 K, 19917 kPa | 0.08242 W/m/K
183.57 K, 21616 kPa | 0.0827 W/m/K
183.57 K, 21619 kPa | 0.08258 W/m/K
183.58 K, 13189 kPa | 0.08088 W/m/K and 0.0813 W/m/K
183.86 K, 13353 kPa | 0.08129 W/m/K
183.86 K, 13354 kPa | 0.08129 W/m/K
183.88 K, 417 kPa | 0.07826 W/m/K
183.88 K, 441 kPa | 0.07853 W/m/K
183.88 K, 6566 kPa | 0.0801 W/m/K
183.88 K, 6568 kPa | 0.07993 W/m/K
183.9 K, 66 kPa | 0.07888 W/m/K
183.96 K, 21629 kPa | 0.08212 W/m/K
183.97 K, 19889 kPa | 0.08191 W/m/K
183.97 K, 19910 kPa | 0.08222 W/m/K
183.97 K, 21622 kPa | 0.0819 W/m/K
183.98 K, 13198 kPa | 0.08092 W/m/K
183.98 K, 13202 kPa | 0.08101 W/m/K
184.26 K, 13357 kPa | 0.08106 W/m/K
184.26 K, 13366 kPa | 0.08106 W/m/K
184.29 K, 6565 kPa | 0.07964 W/m/K
184.29 K, 6575 kPa | 0.07978 W/m/K
184.31 K, 72 kPa | 0.07867 W/m/K
184.31 K, 77 kPa | 0.07869 W/m/K
184.34 K, 428 kPa | 0.07819 W/m/K
184.34 K, 453 kPa | 0.0783 W/m/K
184.41 K, 19891 kPa | 0.08157 W/m/K
184.41 K, 19917 kPa | 0.08156 W/m/K
184.41 K, 21623 kPa | 0.08222 W/m/K
184.41 K, 21641 kPa | 0.08226 W/m/K
184.43 K, 13196 kPa | 0.0804 W/m/K
184.43 K, 13197 kPa | 0.08067 W/m/K
184.7 K, 13354 kPa | 0.08048 W/m/K
184.71 K, 13360 kPa | 0.0804 W/m/K
184.74 K, 6561 kPa | 0.07906 W/m/K
184.74 K, 6562 kPa | 0.07913 W/m/K
184.76 K, 74 kPa | 0.07764 W/m/K
184.77 K, 70 kPa | 0.07835 W/m/K
191.32 K, 109 kPa | 0.078 W/m/K
191.32 K, 120 kPa | 0.07787 W/m/K
191.32 K, 6011 kPa | 0.07821 W/m/K
191.32 K, 6012 kPa | 0.0792 W/m/K
191.32 K, 9411 kPa | 0.08012 W/m/K
191.33 K, 9419 kPa | 0.07979 W/m/K
191.63 K, 28269 kPa | 0.08273 W/m/K
191.63 K, 28273 kPa | 0.08292 W/m/K
191.63 K, 36162 kPa | 0.08425 W/m/K
191.64 K, 36124 kPa | 0.08408 W/m/K
191.64 K, 44196 kPa | 0.08537 W/m/K
191.64 K, 44213 kPa | 0.08541 W/m/K
191.64 K, 52630 kPa | 0.08621 W/m/K
191.65 K, 52615 kPa | 0.08649 W/m/K
191.65 K, 61105 kPa | 0.08792 W/m/K
191.65 K, 61123 kPa | 0.08784 W/m/K
191.65 K, 67633 kPa | 0.08918 W/m/K
191.65 K, 67642 kPa | 0.08859 W/m/K
191.66 K, 154 kPa | 0.07783 W/m/K
191.66 K, 6412 kPa | 0.07892 W/m/K
191.66 K, 6427 kPa | 0.07902 W/m/K
191.66 K, 13243 kPa | 0.0804 W/m/K
191.66 K, 13255 kPa | 0.08025 W/m/K
191.66 K, 20239 kPa | 0.08175 W/m/K
191.66 K, 20246 kPa | 0.08164 W/m/K
191.67 K, 112 kPa | 0.07744 W/m/K
191.67 K, 147 kPa | 0.07786 W/m/K
191.67 K, 6032 kPa | 0.07883 W/m/K
191.67 K, 9411 kPa | 0.07946 W/m/K
191.67 K, 9418 kPa | 0.07986 W/m/K
191.68 K, 121 kPa | 0.07734 W/m/K
191.68 K, 6013 kPa | 0.07908 W/m/K
192 K, 28272 kPa | 0.08275 W/m/K
192 K, 36150 kPa | 0.084 W/m/K
192 K, 36164 kPa | 0.08417 W/m/K
192 K, 44217 kPa | 0.08526 W/m/K
192 K, 52622 kPa | 0.08646 W/m/K
192 K, 52639 kPa | 0.08637 W/m/K
192 K, 61093 kPa | 0.08779 W/m/K
192 K, 67605 kPa | 0.08855 W/m/K
192.01 K, 28268 kPa | 0.08282 W/m/K
192.01 K, 44219 kPa | 0.08526 W/m/K
192.01 K, 61086 kPa | 0.08772 W/m/K
192.01 K, 67622 kPa | 0.08858 W/m/K
192.04 K, 6436 kPa | 0.07895 W/m/K
192.04 K, 13246 kPa | 0.08024 W/m/K
192.04 K, 13262 kPa | 0.08043 W/m/K
192.04 K, 20234 kPa | 0.08155 W/m/K
192.05 K, 6439 kPa | 0.07899 W/m/K
192.05 K, 20236 kPa | 0.0816 W/m/K
192.06 K, 157 kPa | 0.07749 W/m/K
192.06 K, 162 kPa | 0.07742 W/m/K
192.06 K, 9415 kPa | 0.07961 W/m/K
192.06 K, 9425 kPa | 0.07956 W/m/K
192.07 K, 124 kPa | 0.07716 W/m/K
192.07 K, 6029 kPa | 0.07889 W/m/K
192.07 K, 6037 kPa | 0.07899 W/m/K
192.08 K, 123 kPa | 0.07723 W/m/K
192.39 K, 61059 kPa | 0.08761 W/m/K
192.39 K, 67589 kPa | 0.08872 W/m/K
192.4 K, 44218 kPa | 0.08528 W/m/K
192.4 K, 52626 kPa | 0.08558 W/m/K
192.4 K, 61080 kPa | 0.08772 W/m/K
192.4 K, 67603 kPa | 0.08923 W/m/K
192.41 K, 28286 kPa | 0.08272 W/m/K
192.41 K, 36171 kPa | 0.08404 W/m/K
192.41 K, 44213 kPa | 0.08463 W/m/K
192.41 K, 52617 kPa | 0.08563 W/m/K
192.42 K, 28275 kPa | 0.08201 W/m/K
192.42 K, 36146 kPa | 0.08395 W/m/K
192.45 K, 20243 kPa | 0.08132 W/m/K
192.46 K, 20239 kPa | 0.08136 W/m/K
192.47 K, 13253 kPa | 0.08039 W/m/K
192.47 K, 13262 kPa | 0.08013 W/m/K
192.48 K, 6426 kPa | 0.07848 W/m/K
192.48 K, 6434 kPa | 0.07874 W/m/K
192.49 K, 9414 kPa | 0.0792 W/m/K
192.5 K, 157 kPa | 0.07741 W/m/K
192.5 K, 161 kPa | 0.07715 W/m/K
192.5 K, 6046 kPa | 0.07875 W/m/K and 0.07884 W/m/K
192.5 K, 9410 kPa | 0.07887 W/m/K
192.51 K, 147 kPa | 0.0771 W/m/K
192.52 K, 131 kPa | 0.07714 W/m/K
192.82 K, 67573 kPa | 0.08822 W/m/K
192.82 K, 67584 kPa | 0.08836 W/m/K
192.83 K, 52603 kPa | 0.08551 W/m/K
192.83 K, 61059 kPa | 0.08671 W/m/K
192.83 K, 61067 kPa | 0.08703 W/m/K
192.84 K, 44211 kPa | 0.08516 W/m/K
192.84 K, 52611 kPa | 0.08588 W/m/K
192.85 K, 44221 kPa | 0.08537 W/m/K
192.86 K, 36164 kPa | 0.08389 W/m/K and 0.08381 W/m/K
192.87 K, 28295 kPa | 0.08266 W/m/K
192.87 K, 28317 kPa | 0.08252 W/m/K
192.92 K, 20232 kPa | 0.08125 W/m/K
192.92 K, 20252 kPa | 0.08125 W/m/K
192.94 K, 13254 kPa | 0.08003 W/m/K
192.96 K, 6419 kPa | 0.07805 W/m/K
192.96 K, 6437 kPa | 0.07805 W/m/K
